Measured values from ChEMBL document CHEMBL1156538, “Microwave-assisted solid phase synthesis, PEGylation, and biological activity studies of glucagon-like peptide-1(7-36) amide” (2008).

Legend:
Format in all cases: functional
Mus musculus [1] = assay: Decrease in blood glucose level in Kunming mouse at 25 nmol/kg, ip administered 90 mins before 18 mmol/kg, ip glucose injection after 30 mins
Mus musculus [2] = assay: Decrease in blood glucose level in Kunming mouse at 25 nmol/kg, ip administered 90 mins before 18 mmol/kg, ip glucose injection after 45 mins
Mus musculus [3] = assay: Decrease in blood glucose level in Kunming mouse at 25 nmol/kg, ip administered 90 mins before 18 mmol/kg, ip glucose injection after 60 mins
Mus musculus [4] = assay: Decrease in blood glucose level in Kunming mouse at 25 nmol/kg, ip administered simultaneously with glucose at 18 mmol/kg, ip after 15 mins
Mus musculus [5] = assay: Decrease in blood glucose level in Kunming mouse at 25 nmol/kg, ip administered simultaneously with glucose at 18 mmol/kg, ip after 30 mins
Mus musculus [6] = assay: Decrease in blood glucose level in Kunming mouse at 25 nmol/kg, ip administered simultaneously with glucose at 18 mmol/kg, ip after 45 mins
Mus musculus [7] = assay: Decrease in blood glucose level in Kunming mouse at 25 nmol/kg, ip administered simultaneously with glucose at 18 mmol/kg, ip after 60 mins
Mus musculus [8] = assay: Decrease in blood glucose level in Kunming mouse at 25 nmol/kg, ip administered 90 mins before 18 mmol/kg, ip glucose injection after 15 mins

CC[C@H](C)[C@H](NC(=O)[C@H](Cc1ccccc1)NC(=O)[C@H](CCC(=O)O)NC(=O)[C@H](CCCCN)NC(=O)[C@H](C)NC(=O)[C@H](C)NC(=O)[C@H](CCC(N)=O)NC(=O)CNC(=O)[C@H](CCC(=O)O)NC(=O)[C@H](CC(C)C)NC(=O)[C@H](Cc1ccc(O)cc1)NC(=O)[C@H](CO)NC(=O)[C@H](CO)NC(=O)[C@@H](NC(=O)[C@H](CC(=O)O)NC(=O)[C@H](CO)NC(=O)[C@@H](NC(=O)[C@H](Cc1ccccc1)NC(=O)[C@@H](NC(=O)CNC(=O)[C@H](CCC(=O)O)NC(=O)CNC(=O)[C@@H](N)Cc1cnc[nH]1)[C@@H](C)O)[C@@H](C)O)C(C)C)C(=O)N[C@@H](C)C(=O)N[C@@H](Cc1c[nH]c2ccccc12)C(=O)N[C@@H](CC(C)C)C(=O)N[C@H](C(=O)N[C@@H](CCCCN)C(=O)NCC(=O)N[C@@H](CCCNC(=N)N)C(N)=O)C(C)C
Activity (Mus musculus [1]): 14.67 mmol/L
Activity (Mus musculus [2]): 10.23 mmol/L
Activity (Mus musculus [3]): 9.18 mmol/L
Activity (Mus musculus [4]): 12.98 mmol/L
Activity (Mus musculus [5]): 8.27 mmol/L
Activity (Mus musculus [6]): 7.7 mmol/L
Activity (Mus musculus [7]): 7.18 mmol/L
Activity (Mus musculus [8]): 17.92 mmol/L
